Laboratory results taken from patent US11161846B2, “Substituted pyrazolo[4,3-b]pyridines and their use as GluN2B receptor modulators” (JANSSEN PHARMACEUTICA NV, priority 2019, dated 2021).

Molecular target: T1, human GluN1/GluN2B NMDA receptors (Homo sapiens, UniProt Q05586+Q13224)
T1 construct: expressed in transfected cells
Experiment: Calcium flux (FLIPR) assay on cloned human NR1/GluN2B ion channels expressed in mammalian cells, standard assay
Assay type: cell-based
Settings: glutamate ~EC40 and 10 μM glycine, stable cell line with Tet-On induced expression
Experimental: Effects of Test Articles on Cloned Human NR1/GluN2B Ion Channels Expressed in Mammalian Cells
NMDA receptors are ion channels that are highly permeable to Ca^2+ ions, rendering it possible to monitor NMDA receptor function using cell-based calcium flux assay. In this assay, co-agonists glutamate and glycine are added to cells heterologously expressing human GluN1/GluN2B NMDA receptors to initiate cellular Ca^2+ influx. The time course of the changes in intracellular calcium is measured using a fluorescent dye and a FLIPR (Fluorometric Imaging Plate Reader) device.
Twenty four hours before measurements, the expression of the NMDA receptors in the stable cell line is induced with Tet-On inducible system in the presence of a non-selective NMDA receptor blocker. On the day of the experiment, cell culture media is carefully washed and the cells are loaded with Calcium 5 Dye Kit (Molecular Devices) in dye loading buffer containing 137 mM NaCl, 4 mM KCl, 2 mM CaCl2, 0.5 mM MgCl2 (standard assay) or 1.5 mM MgCl2 (HTS assay), 10 mM HEPES and 5 mM D-glucose; pH 7.4. After 1 h incubation at the room temperature, the dye is washed away with the assay buffer (137 mM NaCl (standard assay) or 150 mM (HTS assay), 4 mM KCl (standard assay) or 3 mM (HTS assay), 2 mM CaC2, 0.01 mM EDTA, 10 mM HEPES and 5 mM D-glucose; pH 7.4) In the FLIPR TETRA reader, various concentrations of the test compounds are added to the cells for 5 min while fluorescence is monitored to detect potential agonist activity. Next, co-agonists, glutamate and glycine are added for another 5 minutes. The concentration of glutamate corresponding to ˜EC40 (standard assay) or EC40 (HTS assay) is used to maximize the assay's signal window and ability to detect NMDA receptor antagonists and negative allosteric modulators. A saturating concentration (10 μM) of glycine is also present in the assay. A non-selective NMDA receptor antagonist, (+)MK-801 is used as a positive control for antagonist activity. The fluorescent signal in the presence of test compounds is quantified and normalized to the signal defined by the appropriate control wells.

T1 sequence (Q13224 27-1484, other chains not shown): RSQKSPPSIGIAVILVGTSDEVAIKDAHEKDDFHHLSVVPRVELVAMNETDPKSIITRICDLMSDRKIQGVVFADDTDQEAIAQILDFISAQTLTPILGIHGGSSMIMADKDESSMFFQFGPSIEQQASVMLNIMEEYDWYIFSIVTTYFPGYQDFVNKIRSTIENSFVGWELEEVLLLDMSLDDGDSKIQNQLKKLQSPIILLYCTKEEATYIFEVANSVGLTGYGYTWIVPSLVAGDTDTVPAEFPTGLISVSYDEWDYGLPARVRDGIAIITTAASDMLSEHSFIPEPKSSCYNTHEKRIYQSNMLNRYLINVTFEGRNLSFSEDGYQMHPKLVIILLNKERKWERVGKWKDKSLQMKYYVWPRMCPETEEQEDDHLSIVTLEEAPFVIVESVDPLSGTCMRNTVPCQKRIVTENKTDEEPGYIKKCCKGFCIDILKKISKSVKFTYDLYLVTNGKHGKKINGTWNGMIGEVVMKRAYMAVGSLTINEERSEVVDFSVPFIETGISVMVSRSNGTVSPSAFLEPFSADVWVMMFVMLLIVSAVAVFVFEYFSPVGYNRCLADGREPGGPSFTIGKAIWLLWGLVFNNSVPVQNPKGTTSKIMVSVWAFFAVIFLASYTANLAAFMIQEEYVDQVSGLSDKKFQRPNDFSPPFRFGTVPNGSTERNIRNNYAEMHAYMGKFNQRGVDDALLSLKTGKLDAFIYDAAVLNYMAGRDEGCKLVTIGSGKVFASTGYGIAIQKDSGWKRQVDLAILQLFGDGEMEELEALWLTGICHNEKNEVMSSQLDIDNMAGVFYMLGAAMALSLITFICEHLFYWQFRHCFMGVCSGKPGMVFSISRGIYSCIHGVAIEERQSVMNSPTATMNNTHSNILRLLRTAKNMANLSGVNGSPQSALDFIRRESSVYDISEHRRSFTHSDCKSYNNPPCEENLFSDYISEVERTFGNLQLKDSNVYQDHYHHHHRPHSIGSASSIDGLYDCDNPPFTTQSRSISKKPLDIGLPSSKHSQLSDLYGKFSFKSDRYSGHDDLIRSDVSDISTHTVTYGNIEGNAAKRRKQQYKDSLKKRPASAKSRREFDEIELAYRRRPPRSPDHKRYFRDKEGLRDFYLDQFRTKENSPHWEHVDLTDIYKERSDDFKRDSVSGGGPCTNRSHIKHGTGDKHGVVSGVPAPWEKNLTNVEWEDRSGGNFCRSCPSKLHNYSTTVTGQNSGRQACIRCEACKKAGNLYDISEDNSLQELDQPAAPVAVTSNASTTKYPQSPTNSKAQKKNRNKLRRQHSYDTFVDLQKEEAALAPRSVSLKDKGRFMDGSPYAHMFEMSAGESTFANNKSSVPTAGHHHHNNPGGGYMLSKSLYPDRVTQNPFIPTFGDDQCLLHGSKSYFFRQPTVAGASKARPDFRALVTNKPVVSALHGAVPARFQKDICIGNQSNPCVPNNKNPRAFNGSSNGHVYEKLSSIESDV

Q: For `OC(Cn1ncc2ncc(-c3cccc(C(F)(F)F)c3)cc21)C1CC1` (racemic) [Example 100, (RS)-1-Cyclopropyl-2-[6-[3-(trifluoromethyl)phenyl]pyrazolo[4,3-b]pyridin-1-yl]ethanol], which IC50 is on record?
A: The IC50 was 290 nM.

Q: How did the IC50 turn out when `Cc1cc(-c2cnc3cnn(CC(O)C4CC4)c3c2)ccc1F` (racemic) [Example 101, (RS)-1-Cyclopropyl-2-[6-(4-fluoro-3-methyl-phenyl)pyrazolo[4,3-b]pyridin-1-yl]ethanol] was run?
A: The IC50 was 167 nM.

Q: For `OC(Cn1ncc2ncc(-c3ccc(F)c(C(F)F)c3)cc21)C1CC1` (racemic) [Example 104, (RS)-1-Cyclopropyl-2-(6-(3-(difluoromethyl)-4-fluorophenyl)-1H-pyrazolo[4,3-b]pyridin-1-yl)ethan-1-ol], which IC50 is on record?
A: Its IC50 is 165 nM.

Q: `FC(F)(F)c1cccc(-c2cnc3cnn(CC4CCCO4)c3c2)c1` (racemic) [Example 111, (RS)-1-(Tetrahydrofuran-2-ylmethyl)-6-[3-(trifluoromethyl)phenyl]pyrazolo[4,3-b]pyridine] was tested. Which IC50 did it give?
A: The IC50 was 93 nM.

Q: For `Fc1ccc(-c2cnc3cnn(CC4CCCO4)c3c2)cc1OC(F)F` (racemic) [Example 112, (RS)-6-[3-(Difluoromethoxy)-4-fluoro-phenyl]-1-(tetrahydrofuran-2-ylmethyl)pyrazolo[4,3-b]pyridine], which IC50 is on record?
A: Its IC50 is 113 nM.

Q: How did the IC50 turn out when `Fc1ccc(-c2cnc3cnn(CC4CCOC4)c3c2)cc1C(F)F` (racemic) [Example 113, (RS)-6-[3-(Difluoromethyl)-4-fluoro-phenyl]-1-(tetrahydrofuran-3-ylmethyl)pyrazolo[4,3-b]pyridine] was run?
A: Its IC50 is 23 nM.

Q: How did the IC50 turn out when `CN1C(=O)CCC1Cn1ncc2ncc(-c3ccc(F)c(OC(F)F)c3)cc21` (racemic) [Example 114, (RS)-5-((6-(3-(Difluoromethoxy)-4-fluorophenyl)-1H-pyrazolo[4,3-b]pyridin-1-yl)methyl)-1-methylpyrrolidin-2-one] was run?
A: The IC50 was > 3000 nM.

Q: `CN1C(=O)CCC1Cn1ncc2ncc(-c3ccc(F)c(C(F)F)c3)cc21` (racemic) [Example 115, (RS)-5-[[6-[3-(Difluoromethyl)-4-fluoro-phenyl]pyrazolo[4,3-b]pyridin-1-yl]methyl]-1-methyl-pyrrolidin-2-one] was tested. Which IC50 did it give?
A: The IC50 was > 3000 nM.

Q: With `CN1CCC(Cn2ncc3ncc(-c4ccc(F)c(C(F)F)c4)cc32)C1=O` (racemic) [Example 116, (RS)-3-[[6-[3-(Difluoromethyl)-4-fluoro-phenyl]pyrazolo[4,3-b]pyridin-1-yl]methyl]-1-methyl-pyrrolidin-2-one] as the compound, how does the IC50 read?
A: Its IC50 is 303 nM.

Q: How did the IC50 turn out when `CN1CCC(Cn2ncc3ncc(-c4ccc(F)c(OC(F)F)c4)cc32)C1=O` (racemic) [Example 119, (RS)-3-((6-(3-(Difluoromethoxy)-4-fluorophenyl)-1H-pyrazolo[4,3-b]pyridin-1-yl)methyl)-1-methylpyrrolidin-2-one] was run?
A: Its IC50 is 352 nM.

Q: For `CN1CC(Cn2ncc3ncc(-c4ccc(F)c(C(F)F)c4)cc32)CC1=O` (racemic) [Example 120, (RS)-4-[[6-[3-(Difluoromethyl)-4-fluoro-phenyl]pyrazolo[4,3-b]pyridin-1-yl]methyl]-1-methyl-pyrrolidin-2-one], which IC50 is on record?
A: Its IC50 is 89 nM.

Q: `CN1C(=O)OCC1Cn1ncc2ncc(-c3ccc(F)c(OC(F)F)c3)cc21` (racemic) [Example 123, (RS)-4-((6-(3-(difluoromethoxy)-4-fluorophenyl)-1H-pyrazolo[4,3-b]pyridin-1-yl)methyl)-3-methyloxazolidin-2-one] was tested. Which IC50 did it give?
A: Its IC50 is 2830 nM.

Q: Which IC50 does the source give for `CN1C(=O)OCC1Cn1ncc2ncc(-c3ccc(F)c(C(F)F)c3)cc21` (racemic) [Example 124, (RS)-4-[[6-[3-(Difluoromethyl)-4-fluoro-phenyl]pyrazolo[4,3-b]pyridin-1-yl]methyl]-3-methyl-oxazolidin-2-one] here?
A: Its IC50 is 1890 nM.

Q: `O=C1NCC(Cn2ncc3ncc(-c4ccc(F)c(OC(F)F)c4)cc32)O1` (racemic) [Example 125, (RS)-5-[[6-[3-(Difluoromethoxy)-4-fluoro-phenyl]pyrazolo[4,3-b]pyridin-1-yl]methyl]oxazolidin-2-one] was tested. Which IC50 did it give?
A: Its IC50 is 498 nM.
